Experimental findings from ChEMBL document CHEMBL6109117, “Synthesis of an RBM39 Degrader That Downregulates CEP192 and Induces Disorganized Spindle Structures” (J Med Chem, 2025) are described below.

Data set [1] deals with HCT-116. In words: Induction of RBM39 degradation in human HCT-116 cells at 1 uM incubated for 3 to 6 hrs by Western blot analysis. As to conditions: time 3-6 hrs. The data set is classed as cell-based. In general terms: A western blot detects proteins with antibodies after separation by electrophoresis.
In data set [2] the test system is HCT-116. In words: Effect on DCAF15 expression in human HCT-116 cells at 0.1 to 5 uM incubated for 24 hrs by Western blot analysis. Format: functional, cell-based. As to conditions: dose 0.1-5 µM.
Data set [3] relates to HCT-116. The experiment in a line: Induction of spliceosome function impairment in human HCT-116 cells assessed as fold increase in NCKAP1L RI transcript at 1 to 10 uM incubated for 12 hrs by qRT-PCR analysis relative to control. Format: functional. As to conditions: dose 1-10 µM. (In general: Quantitative PCR measures a nucleic acid by following its amplification.)
Data set [4] has as its system HCT-116. In words: Induction of spliceosome function impairment in human HCT-116 cells assessed as fold increase in PRPF38A RI transcript at 1 to 10 uM incubated for 12 hrs by qRT-PCR analysis relative to control. Format: functional. Particulars: dose 1-10 µM.
Data set [5] relates to HCT-116. The experiment in a line: Induction of spliceosome function impairment in human HCT-116 cells assessed as fold decrease in ZNF207 exon8-exon9 RNA level at 1 to 10 uM incubated for 12 hrs by qRT-PCR analysis relative to control. The data set is classed as functional. Particulars: dose 1-10 µM.
In data set [6] the test system is HCT-116. In words: Antitumor activity against human HCT-116 cells xenografted in BALB/c nude mouse at 50 mg/kg, po bid treated for 17 days relative to control. Particulars: HCT-116, 408 h, time 17 day, read-out: TGI. Format: functional. On the technique in general: A xenograft is tissue or cells of one species grown in another, often human tumour cells in immunodeficient mice.

Data set [7] deals with HCT-116. In words: Antitumor activity against human HCT-116 cells xenografted in BALB/c nude mouse at 150 mg/kg, po qd treated for 17 days relative to control. As to conditions: HCT-116, 408 h, time 17 day, read-out: TGI. The data set is classed as functional.
A short description of data set [8]: Cmax in ICR mouse at 15 mg/kg, po. Format: ADME, organism-based. As to conditions: in vivo.
Data set [9] is described as follows: AUC (0 to t) in ICR mouse at 15 mg/kg, po. The data set is classed as ADME, organism-based. Particulars: in vivo.
Data set [10] deals with HCT-116. In words: Effect on RNA splicing in human HCT-116 cells assessed as CEP192 gene skipping exons at 2 uM incubated for 12 hrs by RNA-seq analysis. The data set is classed as functional, cell-based.
Data set [11] has as its system HCT-116. In words: Effect on RNA splicing in human HCT-116 cells assessed as CEP192 gene retention of introns at 2 uM incubated for 12 hrs by RNA-seq analysis. The data set is classed as functional, cell-based.
The subject of data set [12] is HCT-116. The experiment in a line: Effect on RNA splicing in human HCT-116 cells assessed as CEP192 gene retention of introns incubated for 12 hrs by PCR analysis. The data set is classed as functional, cell-based. As to conditions: dose <= 10.0 µM.
For data set [13], the system named is HCT-116. The experiment in a line: Effect on RNA splicing in human HCT-116 cells assessed as CEP192 gene retention of introns up to 10 uM by PCR analysis. Format: functional, cell-based. As to conditions: time 1-24 hrs.
In data set [14] the test system is K562. In words: Effect on RNA splicing in human K562 cells assessed as CEP192 gene skipping exons incubated for 12 hrs by PCR analysis. Format: functional, cell-based. Particulars: dose 0.1-10 µM.
The subject of data set [15] is MV4-11. The experiment in a line: Effect on RNA splicing in human MV4-11 cells assessed as CEP192 gene retention of introns incubated for 12 hrs by PCR analysis. Particulars: dose 0.1-10 µM. Format: functional, cell-based.
The test system of data set [16] is HL-60. In words: Effect on RNA splicing in human HL-60 cells assessed as CEP192 gene skipping exons incubated for 12 hrs by PCR analysis. Format: functional, cell-based. Particulars: dose 0.1-10 µM.
Data set [17] has as its system HL-60. The experiment in a line: Effect on RNA splicing in human HL-60 cells assessed as CEP192 gene retention of introns incubated for 12 hrs by PCR analysis. The data set is classed as functional, cell-based. As to conditions: dose 0.1-10 µM.
In data set [18] the test system is Kasumi 1. The experiment in a line: Effect on RNA splicing in human Kasumi 1 cells assessed as CEP192 gene skipping exons incubated for 12 hrs by PCR analysis. The data set is classed as functional, cell-based. As to conditions: dose 0.1-10 µM.
For data set [19], the system named is Kasumi 1. In words: Effect on RNA splicing in human Kasumi 1 cells assessed as CEP192 gene retention of introns incubated for 12 hrs by PCR analysis. Particulars: dose 0.1-10 µM. The data set is classed as functional, cell-based.
In data set [20] the test system is MOLM-13. The experiment in a line: Effect on RNA splicing in human MOLM-13 cells assessed as CEP192 gene skipping exons incubated for 12 hrs by PCR analysis. Format: functional, cell-based. Particulars: dose 0.1-10 µM.
Data set [21] has as its system MOLM-13. The experiment in a line: Effect on RNA splicing in human MOLM-13 cells assessed as CEP192 gene retention of introns incubated for 12 hrs by PCR analysis. The data set is classed as functional, cell-based. Particulars: dose 0.1-10 µM.
The test system of data set [22] is CEM/C1. The experiment in a line: Effect on RNA splicing in human CEM/C1 cells assessed as CEP192 gene skipping exons incubated for 12 hrs by PCR analysis. Format: functional, cell-based. Particulars: dose 0.1-10 µM.
The nature of data set [23]: Effect on RNA splicing in human K562 cells assessed as number of retention of introns at 2 uM incubated for 12 hrs by RNA-seq analysis. The data set is classed as functional.
Data set [24] in a line: Effect on RNA splicing in human K562 cells assessed as number of alternative 3' splice sites at 2 uM incubated for 12 hrs by RNA-seq analysis. Format: functional.
The nature of data set [25]: Effect on RNA splicing in human K562 cells assessed as number of alternative 5' splice sites at 2 uM incubated for 12 hrs by RNA-seq analysis. Format: functional.
Data set [26] is described as follows: Effect on RNA splicing in human K562 cells assessed as mutually exclusive exons at 2 uM incubated for 12 hrs by RNA-seq analysis relative to control. The data set is classed as functional.
The nature of data set [27]: Effect on RNA splicing in human K562 cells assessed as alternative 3' splice sites at 2 uM incubated for 12 hrs by RNA-seq analysis relative to control. Format: functional.
Data set [28] has as its system MV4-11. The experiment in a line: Antiproliferative activity against human MV4-11 cells assessed as inhibition of cell growth incubated for 4 days by CCK8 assay. The data set is classed as functional, cell-based. As to conditions: time 4.0 day.
For data set [29], the system named is HL-60. In words: Antiproliferative activity against human HL-60 cells assessed as inhibition of cell growth incubated for 4 days by CCK8 assay. Format: functional, cell-based. As to conditions: time 4.0 day.
Data set [30] deals with CEM/C1. The experiment in a line: Antiproliferative activity against human CEM/C1 cells assessed as inhibition of cell growth incubated for 4 days by CCK8 assay. The data set is classed as functional, cell-based. Particulars: time 4.0 day.
Data set [31] relates to HCT-116. In words: Induction of cell cycle arrest in human HCT-116 cells assessed as accumulation at G2/M phase at 1 uM incubated for 48 hrs by PI staining based flow cytometry relative to control. Format: functional.
The subject of data set [32] is HCT-116. The experiment in a line: Induction of cell cycle arrest in human HCT-116 cells assessed as accumulation at G2/M phase at 1 uM incubated for 72 hrs by PI staining based flow cytometry relative to control. Format: functional.
For data set [33], the system named is K562. The experiment in a line: Induction of RBM39 degradation in human K562 cells incubated for 24 hrs by Western blot analysis. The data set is classed as cell-based. As to conditions: dose 1-10 µM.
The test system of data set [34] is MV4-11. In words: Induction of RBM39 degradation in human MV4-11 cells incubated for 24 hrs by Western blot analysis. Format: cell-based.
Data set [35] concerns HL-60. The experiment in a line: Induction of RBM39 degradation in human HL-60 cells incubated for 24 hrs by Western blot analysis. The data set is classed as cell-based.
Data set [36] concerns Kasumi 1. In words: Induction of RBM39 degradation in human Kasumi 1 cells incubated for 24 hrs by Western blot analysis. Format: cell-based.
In data set [37] the test system is MOLM-13. The experiment in a line: Induction of RBM39 degradation in human MOLM-13 cells incubated for 24 hrs by Western blot analysis. Format: cell-based.
The test system of data set [38] is CEM/C1. The experiment in a line: Induction of RBM39 degradation in human CEM/C1 cells incubated for 24 hrs by Western blot analysis. Format: cell-based.
In the next data set the test system is RS4;11. In words: Induction of RBM39 degradation in human RS4;11 cells incubated for 24 hrs by Western blot analysis. The data set is classed as cell-based.
Data set [39] relates to HCT-116. The experiment in a line: Induction of spliceosome function impairment in human HCT-116 cells assessed as increase in NCKAP1L RI transcript at 1 to 10 uM incubated for 12 hrs by qRT-PCR analysis. Format: functional, cell-based. Particulars: dose 1-10 µM.
The subject of data set [40] is HCT-116. In words: Induction of spliceosome function impairment in human HCT-116 cells assessed as decrease in ZNF207 exon8-exon9 RNA level at 1 to 10 uM incubated for 12 hrs by qRT-PCR analysis. Format: functional, cell-based. Particulars: dose 1-10 µM.

Molecules are shown by their SMILES. Active and inactive are the calls of the source. The rule behind the calls is not given here.

By Cmax is commonly meant the maximum level reached in the sampled fluid or tissue. As usually defined, the AUC(0-t) is exposure summed from dosing to a finite time, without extrapolation to infinity. Lower therefore signals low exposure. As to `Cc1ccc(NS(=O)(=O)c2cccc(NC(=O)C(=O)N3CCC[C@@H]3CO)c2)c2[nH]cc(C#N)c12`, the Activity entry in the data set with HCT-116 [1] was “Active; Compound Exhibited Its Efficiency Steadily Increasing From 3 To 48 Hrs”; in the data set on HCT-116 [10] it was “Active; Observed Skipping Of Exons 42, 28 And 13”; in the data set with HCT-116 [11], “Active; Observed Retention Of Introns Between Exons 27 And 28”; in the data set on HCT-116 [12], “Dose-dependent-effect; Observed Retention Of Introns Between Exons 27 And 28”; in the data set with HCT-116 [13], “Time-dependent-effect; Observed Retention Of Introns Between Exons 27 And 28”; with K562 [14] it was “Dose-dependent-effect; Observed Skipping Of Exons 42, 28 And 13”. For the same compound, the Activity entry is “Dose-dependent-effect; Observed Retention Of Introns Between Exons 27 And 28” in the data set with MV4-11 [15]; “Dose-dependent-effect; Observed Skipping Of Exons 42, 28 And 13” with HL-60 [16]; “Dose-dependent-effect; Observed Retention Of Introns Between Exons 27 And 28” with HL-60 [17]; “Dose-dependent-effect; Observed Skipping Of Exons 42, 28 And 13” in the data set with Kasumi 1 [18]; “Dose-dependent-effect; Observed Retention Of Introns Between Exons 27 And 28” in the data set with Kasumi 1 [19]; “Dose-dependent-effect; Observed Skipping Of Exons 42, 28 And 13” in the data set with MOLM-13 [20]. For the same compound, the Activity entry was “Dose-dependent-effect; Observed Retention Of Introns Between Exons 27 And 28” in the data set with MOLM-13 [21]; “Dose-dependent-effect; Observed Skipping Of Exons 42, 28 And 13” with CEM/C1 [22]; 1454 in data set [23]; 1232 in data set [24]; 633 in [25]; 10.3% in data set [26]. The Activity in [27] was 7.1%; with HCT-116 [31], 58%; with HCT-116 [32], 66%; in the data set on K562 [33], “Dose-dependent-effect”; in the data set on MV4-11 [34], “Dose-dependent-effect”; in the data set with HL-60 [35], “Dose-dependent-effect”. Further, the Activity result with Kasumi 1 [36], with MOLM-13 [37], in the data set on CEM/C1 [38] and in the data set with RS4;11 was “Dose-dependent-effect” throughout. Moreover, in the data set on HCT-116 [2], the outcome was inactive. In addition, the “fold change (FC)” value is 3 in the data set with HCT-116 [3], 3 in the data set on HCT-116 [4] and 10 in the data set with HCT-116 [5]. In addition, the inhibition in vivo at 50 mg/kg in the data set with HCT-116 [6] worked out at 35%. The inhibition in vivo at 150 mg/kg in the data set with HCT-116 [7] was determined as 72%. The compound further came in with a Cmax in data set [8] of 2120 ng/mL. Besides, the AUC(0-t) in data set [9] stood at 3480 ng·h/mL. In addition, the inhibition result with MV4-11 [28], with HL-60 [29] and with CEM/C1 [30] was “Active” each time.

Regarding `NS(=O)(=O)c1ccc(S(=O)(=O)Nc2cccc3c(Cl)c[nH]c23)cc1` [INDISULAM], the outcome in the data set with HCT-116 [39] and in the data set with HCT-116 [40] was Active.
